Patent publication US8987211B2, “Therapeutic peptides and use thereof against huntington's disease” (Centre National de la Recherche Scientifique (CNRS), priority 2011, dated 2015)
“Also recorded” adds a separate entry of the source. No end group written: not given here.

How the values were obtained:
[1] = system: polyQ-hHtt protein, N17 region (the first 17 aa); experiment: Interference with nucleation step of polyQ-hHtt aggregation; design: species or system human; conditions: summary statement, no example
[2] = system: GFP-hHtt171aa-136Q aggregates; experiment: Quantification of aggregates by filtration, HeLa cells; type: cell-based, human; conditions: cellulose acetate membrane, anti-GFP, FIG. 5B
Experimental: Protein extracts were obtained according to (Sittler et al., Mol Cell. 1998) with the following modifications: after transfection, the cell pellets are treated with DNase and resuspended in 150 μl 1% SDS and 50 mM DTT in PBS. The samples are boiled for 5 minutes. Two 150 μL aliquots corresponding to independent experiments were filtered together and each point was reproduced 3 times.
The samples were filtered on a cellulose acetate membrane ([…], Schleicher and Schuell) using a Biorad Dot-blot apparatus. The membranes were then subjected to immunodetection with an antibody, either anti-GFP polyclonal for the HeLa cells (Invitrogen, 1:5000) or anti-HA polyclonal for the salivary glands (SC805, Santa-Cruz, 1:200) in order to visualise the aggregates The aggregates are then detected using a secondary anti-rabbit antibody coupled with HRP (horseradish peroxidase, Jackson 1:50 000). The immunoreagent spots are detected with an […] substrate (ECL, Roche) and the quantifications carried out using Image J (see FIG. 5B).

[3] = system: HA-hHtt171aa-136Q protein; experiment: polyQ-hHtt aggregation in Drosophila salivary glands (MS1096-Gal4 driver, immunolabelling); type: in vivo; conditions: third instar larvae, anti-HA immunolabel
Source text: The pep4 and pep42 peptides identified as inhibitors of polyQ-hHtt aggregation in HeLa cells were cloned using the Gateway technique in Drosophila pUASt expression vectors, allowing the expression of N-terminal 6Myc- or GFP-tagged peptides.
Transgenic flies expressing these peptides were constructed by injecting vectors in Drosophila embryos. The UAS/Gal4 system (Brand and Perrimon, Development 1993) was used to express these peptides at specific times and in specific tissues, in the presence of an HA- (hemagglutinin) tagged UAS-polyQ-hHtt vector.
The MS1096-Gal4 driver was used to express the HA-hHtt^171aa-136Q protein (detected by an anti-HA antibody) in the salivary glands, in the absence or presence of the GFP-pep42 peptide. […] Salivary glands from dissected third instar larvae were immunolabelled. The glands are fixed for 20 minutes in PBS with 3.7% paraformaldehyde (PFA) and 0.1% Triton then washed in PBS/0.1% Triton. The glands were incubated with the antibodies (anti-HA, then Cy3 conjugate antibody) with 1% BSA.

hHtt548aa-128Q protein [4] = experiment: Axonal transport, fixed larvae (OK6-Gal4; UAS-NPY-GFP); type: in vivo, Drosophila
Experimental: (§1) To test the effect of polyQ-hHtt on axonal transport, the fate of vesicles expressing Neuropeptide Y (NPY) labelled with GFP (NPY-GFP) was monitored, either after dissection and fixation of the larvae, or by real-time microscopy in order to monitor vesicular transport in the motor neurons.
The nervous system of OK6-Gal4 larvae which express vesicles containing NPY-GFP (OK6-Gal4; UAS-NPY-GFP) was dissected and fixed as previously in 3.7% PFA. Incubations with the antibodies and washing are carried out in PBS, 0.3% Triton. Expression of normal Htt^548aa-0Q has no effect on the vesicles which remain numerous and evenly distributed along the axon. Normal Htt, detected by an anti-Htt HU-4C8 antibody (Chemicon, 1:750), lies along the axon and cannot be detected at the neuromuscular junctions (NMJs). Expression of the hHtt^548aa-128Q protein leads to the formation of aggregates along the axons and to abnormal accumulation of the protein at the NMJs. We observe a decrease in the total number of vesicles and their accumulation, especially at the aggregates. In all cases, the vesicles reach the NMJs.

[5] = system: UAS-hHtt67aa-98Q or UAS-hHtt548aa-128Q; experiment: Eye depigmentation and degeneration in flies expressing polyQ-hHtt (gmr-Gal4); type: in vivo, Drosophila; conditions: 10-day old females, 29° C., polyQ-hHtt (67aa or 548aa)
Experimental: (§2) The eye depigmentation and degeneration phenotypes are analysed in 10-day old females expressing either UAS-hHtt^67aa-98Q or UAS-hHtt^548aa-128Q controlled by the gmr-Gal4 driver, after transfer at 29° C. from the embryogenesis stage (see FIG. 6b, to be compared with the wild flies shown on FIG. 6a). Flies expressing other genes involved in polyQ diseases (UAS-SCA1-polyQ or UAS-SCA3-polyQ) were also analysed (FIG. 6d).

[6] = molecular target: T1, first 17 amino acids before the polyQ domain of the human Htt protein (Homo sapiens, UniProt P42858); experiment: Co-immunoprecipitation with first 17 amino acids of Htt; type: binding
T1 construct: using the first 17 amino acids before the polyQ domain of the human Htt protein; expressed in transfected cells; host or cells: HeLa cells (inferred from 'the same experiments')
Experimental: (§3) This assumption was tested by co-immunoprecipitation experiments using HeLa cells cotransfected by GFP-hHtt^171aa-136Q or by GFP-P1 (corresponding to the first 98 aa with no polyQ domain), in the presence of Cherry-pep42. A G/A-agarose protein resin binding an anti-GFP was used to immunoprecipitate the GFP-hHtt^171aa-136Q protein or the GFP-P1 peptide and to co-immunoprecipitate the Cherry-pep42, visualised by an anti-cherry by western blot.

[7] = system: GFP-hHtt171aa-136Q (GFP-polyQ-hHtt protein); experiment: Cotransfection in HeLa cells, polyQ-hHtt aggregation visualised by anti-GFP immunodetection; type: cell-based, human; conditions: cotransfection of equivalent quantities of vectors, Myc- or Cherry-tagged peptide
Experimental: Various peptides contained in the 548aa of the human Huntingtin N-terminal fragment have been cloned by Gateway in expression vectors in pcDNA type cultured HeLa cells. Each peptide was tagged either by Myc or by Cherry at its N-terminal end. These various peptides were tested by cotransfection in HeLa cells in the presence of a pcDNA vector expressing a GFP-polyQ-hHtt protein (see FIG. 5). In these experiments, the polyQ-hHtt protein tested corresponded to an hHtt protein covering 171 aa and containing an extended polyQ with a GFP tag at its N-ter end (GFP-hHtt^171aa-136Q). The HeLa cells were cultured in 6-well boxes and transfected by 1.5 μg of total DNA, using JetPei (Qbiogene) reagent. Equivalent quantities of expression vectors (polyQ protein and peptides) are used for the cotransfections. When necessary, pBluescript is used to balance the quantity of DNA. Aggregation of GFP-hHtt^171aa-136Q is visualised by immunodetection with an anti-GFP antibody (see FIG. 5). This protein forms cytoplasmic aggregates (see FIG. 5A).

[8] = system: UAS-SCA1-polyQ or UAS-SCA3-polyQ; experiment: Eye degeneration in flies expressing other polyQ disease genes; type: in vivo, Drosophila
Experimental: as §2

GFP-hHtt171aa-136Q = experiment: Co-immunoprecipitation in cotransfected HeLa cells; type: binding, human; conditions: Cherry-pep42, anti-GFP immunoprecipitation, anti-cherry western blot
Experimental: as §3

[9] = system: GFP-P1 (first 98 aa with no polyQ domain); experiment: Co-immunoprecipitation in cotransfected HeLa cells; type: binding, human; conditions: Cherry-pep42, GFP-P1, anti-GFP immunoprecipitation
Experimental: as §3

[10] = system: OK6-Gal4; UAS-NPY-GFP; UAS-hHtt548aa-128Q larvae; experiment: Larval locomotion; type: in vivo, Drosophila; conditions: larvae expressing hHtt548aa-128Q
hHtt548aa-128Q protein [11] = experiment: Axonal vesicular transport by real-time microscopy in larva motor neurons; type: in vivo, Drosophila; conditions: segments A3 to A4
Experimental: as §1
For this examination, OK6-Gal4; UAS-NPY-GFP larvae were anaesthetised with ether for 2 minutes and positioned with the ventral side upwards between slide and slip cover in polymerised 1% agarose, for direct visualisation using fluorescence microscopy with a 63× objective, to monitor the movement of the vesicles between segments A3 and A4. A film of 100 photographs is taken every 280 ms. For each film, 20 vesicles were analysed with Image J (manual vesicle tracking plugin developed by F. Cordelières, Institut Curie, Orsay, France). Vesicles with an instantaneous speed of less than 0.01 μm/s are defined as having paused. The mean speed is calculated as being the total distance traveled irrespective of the vesicle direction (anterograde or retrograde) divided by the total estimated time during which the vesicle is monitored. While expression of the hHtt^548aa-128Q protein leads to an increase in the pause time of vesicles and reduces their speed, the presence of pep42 rescues both the vesicle pause time and speed.

polyQ-hHtt = experiment: Viability and survival of adult flies affected by polyQ-hHtt; type: in vivo, Drosophila; conditions: summary statement, no example
GFP-polyQ-hHtt (Q136) = experiment: Activity in HeLa cells, aggregate percentage by GFP signal; type: cell-based, human; conditions: increasing quantity of synthetic peptide added to the culture medium, FIG. 7c
Source text: HeLa cells are transfected with: • 1—GFP-polyQ-hHtt (Q136), • 2—GFP-polyQ-hHtt co-transfected with a vector expressing Pep42-TAT, or • 3—GFP-polyQ-hHtt in the presence of an increasing quantity of Pep42-TAT synthetic peptide added to the culture medium.
FIG. 7c corresponds to the aggregate percentage identified by the GFP signal related to the polyQ-hHtt chain, in the presence of an increasing quantity of fusion peptide.

Sequence of hHtt548aa-128Q protein (P42858 with tags, fused parts or gaps limits assumed): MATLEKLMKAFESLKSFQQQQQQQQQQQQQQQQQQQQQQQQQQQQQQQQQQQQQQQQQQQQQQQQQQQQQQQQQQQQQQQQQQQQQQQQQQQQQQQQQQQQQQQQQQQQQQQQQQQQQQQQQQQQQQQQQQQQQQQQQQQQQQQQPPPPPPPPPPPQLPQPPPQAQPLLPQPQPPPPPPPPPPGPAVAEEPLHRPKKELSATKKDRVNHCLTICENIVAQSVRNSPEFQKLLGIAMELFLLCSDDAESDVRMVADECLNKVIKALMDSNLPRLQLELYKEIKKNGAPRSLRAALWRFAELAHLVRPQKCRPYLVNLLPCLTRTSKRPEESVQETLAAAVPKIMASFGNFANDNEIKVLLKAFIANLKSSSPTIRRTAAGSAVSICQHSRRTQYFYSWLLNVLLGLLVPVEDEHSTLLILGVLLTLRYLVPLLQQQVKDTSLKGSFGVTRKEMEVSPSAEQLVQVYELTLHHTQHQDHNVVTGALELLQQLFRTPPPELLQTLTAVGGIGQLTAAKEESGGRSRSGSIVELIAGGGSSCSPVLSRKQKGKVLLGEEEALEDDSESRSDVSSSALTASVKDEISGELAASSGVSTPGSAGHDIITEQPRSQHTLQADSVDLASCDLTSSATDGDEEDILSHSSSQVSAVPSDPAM
Sequence of GFP-hHtt171aa-136Q (GFP-polyQ-hHtt protein) (P42858 with tags, fused parts or gaps limits assumed): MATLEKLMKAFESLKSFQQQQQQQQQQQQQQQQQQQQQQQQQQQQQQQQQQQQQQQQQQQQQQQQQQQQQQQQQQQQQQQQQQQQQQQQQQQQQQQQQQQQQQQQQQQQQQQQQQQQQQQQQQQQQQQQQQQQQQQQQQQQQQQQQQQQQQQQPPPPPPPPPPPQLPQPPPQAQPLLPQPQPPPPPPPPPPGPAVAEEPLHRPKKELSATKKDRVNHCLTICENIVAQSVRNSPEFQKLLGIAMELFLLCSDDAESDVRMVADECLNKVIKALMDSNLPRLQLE
Sequence of GFP-hHtt171aa-136Q aggregates (P42858 with tags, fused parts or gaps limits assumed): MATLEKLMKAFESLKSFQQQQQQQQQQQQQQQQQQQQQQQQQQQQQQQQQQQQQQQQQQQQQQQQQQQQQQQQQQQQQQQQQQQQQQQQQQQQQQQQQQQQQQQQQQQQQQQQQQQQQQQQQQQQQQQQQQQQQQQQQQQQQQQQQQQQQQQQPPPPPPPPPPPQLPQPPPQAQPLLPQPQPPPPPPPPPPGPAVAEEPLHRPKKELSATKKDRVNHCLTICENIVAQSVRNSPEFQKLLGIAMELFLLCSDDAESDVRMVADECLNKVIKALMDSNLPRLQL
Sequence of GFP-P1 (first 98 aa with no polyQ domain) (P42858 with tags, fused parts or gaps DEL18-38 limits assumed): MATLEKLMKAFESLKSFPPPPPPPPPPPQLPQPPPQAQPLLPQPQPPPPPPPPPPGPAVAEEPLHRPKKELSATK

Molecule	first step of aggregation (nucleation) [1]	quantification of aggregates by filtration [2]	aggregation of polyQ-hHtt in salivary glands [3]	accumulation of polyQ-hHtt at the neuromuscular junctions (NMJs) (hHtt548aa-128Q protein [4])	distribution of NPY-GFP vesicles along the axons (hHtt548aa-128Q protein [4])	size of the polyQ-hHtt aggregates along axons (hHtt548aa-128Q protein [4])	eye depigmentation and degeneration phenotype [5]	interaction with first 17 amino acids of Htt (co-immunoprecipitation) [6]	aggregation of GFP-hHtt171aa-136Q (polyQ-hHtt) in HeLa cells [7]	eye degeneration phenotype, other polyQ genes [8]	interaction with Huntingtin N-terminal fragment (co-immunoprecipitation) (GFP-hHtt171aa-136Q)	interaction with N-terminal fragment lacking polyQ (co-immunoprecipitation) [9]	mobility of the larvae [10]	vesicle mean speed (hHtt548aa-128Q protein [11])	vesicle pause time (hHtt548aa-128Q protein [11])	viability and survival of adult flies (polyQ-hHtt)	aggregate percentage identified by the GFP signal (GFP-polyQ-hHtt (Q136))
AASSGVSTPGSAGHDIITEQPRS (not fully specified) [pep42, 23 aa peptide contained in pep4, positions 480 to 502 of wild-type hHtt; tested Myc-, Cherry- or GFP-tagged]	interferes with the first step of aggregation	confirmed by quantification	absence of aggregates	non-accumulation of polyQ-hHtt at the NMJs	better distribution of the vesicles along the axons	reduction in the size of the polyQ-hHtt aggregates	normal eyes	successfully repeated	no longer forms aggregates	Only flies expressing polyQ-hHtt (67aa or 548aa) have normal eyes	interacts directly with the N-terminal fragment of Huntingtin	this interaction does not require the presence of the polyQ domain	completely rescued	rescues	rescues	capable of rescuing	–
AASSGVSTPGSAGHDIITEQPRSGGYGRKKRRQRRR (Pep42-TAT) [fusion peptide of Pep42 and TAT with 2 glycines inserted between]	–	–	–	–	–	–	–	–	–	–	–	–	–	–	–	–	decreases significantly; also recorded: protective activity of the fusion peptide is conserved
QQLFRTPPPELLQTLTAVGGIGQLTAAKEESGGRSRSGSIVELIAGGG SSCSPVLSRKQKGKVLLGEEEALEDDSESRSDVSSSALTASVKDEISGELAAS SGVSTPGSAGHDIITEQPRSQHTLQADSVDLASCDLTSSATDGDEEDILSHSSS QVSAVPSDPAM (protein, Pep4) QQLFRTPPPELLQTLTAVGGIGQLTAAKEESGGRSRSGSIVELIAGGGSSCSPVLSRKQKGKVLLGEEEALEDDSESRSDVSSSALTASVKDEISGELAASSGVSTPGSAGHDIITEQPRSQHTLQADSVDLASCDLTSSATDGDEEDILSHSSSQVSAVPSDPAM	–	confirmed by quantification	absence of aggregates	–	–	–	–	–	proved to be active; also recorded: inhibiting effect of polyQ-hHtt aggregation	–	–	–	–	–	–	–	–
